The source of these data is US8063104B2, “Guanidine derivatives as inhibitors of DDAH” (UCL Business PLC, priority 2004, dated 2011).

The target of series [1] is T1, DDAH (Rattus norvegicus, UniProt O08557).
T1 construct: Rat kidney was homogenized in PBS; from tissue; host or cells: rat kidney homogenate, high-speed supernatant
Kind of series: DDAH activity assay (rat kidney lysate, [14C]L-NMMA to [14C]citrulline). Format: biochemical. The following applies: for Inhibition at 1 mM, % / inhibition at 1000 µM: 1 mM compound, [14C]L-NMMA 1 μmol/L, 1 h 37° C.; for Inhibition at 100 μM (%) / inhibition at 100 µM: 100 μM compound. Here is the method:
Rat kidney was homogenized in PBS containing PMSF 1 mM, leupeptin 5 μg/ml, pepstatin 5 μg/ml, chymostatin 5 μg/ml, and the lysate was centrifuged (4000 rpm. 20 min then supernatant further centrifuged for 40000 rpm, 30 min, 4° C.). The supernatants were analyzed for DDAH activity; [^14[…]) was added to the cell lysates (final volume 100 μl) and incubated for 1 h at 37° C. Dowex resin (0.5 ml) at neutral pH was immediately added to samples to terminate the reaction and bind unmetabolized L-NMMA. [^14C]Citrulline formation was determined by scintillation counting (Hewlett Packard).

Series [2] deals with RAW cells. Briefly: Cell viability assay (MTT) in RAW cells.
Description: RAW cells were treated with DDAH inhibitor compound (0.5 mM) in complete media for 24 h; cells were subsequently assessed for viability by MTT assay. Cell culture media was removed from cells and replaced with 200 μl complete media containing 3-[4,5-Dimethylthiazol-2-yl]-2,5-diphenyltetrazolium bromide (MTT 0.2 mg/ml) for 30 min at 37° C. MTT containing media was removed and 100 ul DMSO was added to solubilize cells; after shaking, plates were read at OD550 nm.
In series [3] the target is T2, iNOS (Mus musculus, UniProt P29477).
T2 construct: endogenous in cells; host or cells: RAW cells stimulated with LPS/IFN and TNF
Briefly: iNOS activity Greiss assay in stimulated RAW cells. In kind it is cell-based. The following applies: Griess NOx, RAW cells stimulated 24 h with LPS/IFN and TNF, compound 0.5 mM, 550 nm; control 0.367 ± 0.021. Here is the method:
RAW cells were stimulated for 24 h with LPS/IFN and TNF, in the presence of the DDAH inhibitor compounds (0.5 mM). Levels of NOx secreted into the media by the cells were determined by Griess assay: Greiss reagent [1:1 sulfanilamide ([…]) in ortho-phosphoric acid (50%) and N-(1-napthyl)ethylenediamine dihydrochloride (1%)] was added as 100 μl volume to 100 μl cell culture media and the plate was read at 550 nm and analysed in relation to sodium nitrite and nitrate standards.

Series [4] concerns eNOS. Kind of series: eNOS assay ([14C]arginine conversion). In kind it is biochemical. The following applies: eNOS activity. Here is the method: Compounds to be tested were added to NOS assay buffer (HEPES 50 mM pH 7.2, FAD 5 μM, FMN 5 μM, BH4 10 μM, NADPH 1 mM, DTT 0.5 mM, CaCl2 1 mM, MgCl2 1 mM, calmodulin 50 nM, [^14C] arginine 100 μM) in a final volume of 100 μl and the reaction was initiated by addition of eNOS (eNOS 3.3. U/reaction, Alexis Biochemicals). Reactions were incubated for 1 h at 37° C. and the reaction was terminated by the addition of Dowex pH 5.5 (0.85 ml) to each tube. Tubes were vortexed and microfuged <12000 g, 5 min. 100 μl of the Dowex supernatant was added to 5 ml scintillation cocktail and was counted in a scintillation counter (Hewlett Packard). The compounds were tested at 1 mM and 0.1 mM concentrations. Activity is expressed as % of control where control contained no inhibitor, n=4. The DDAH inhibitors of the present invention tested had no significant effect on eNOS activity.

Where [5] appears, read: MTT, RAW cells, compound 0.5 mM, 24 h, OD550 nm, control 2.54 ± 0.26.

Like-named read-outs stand apart in the source and are kept apart here.

T1 sequence (O08557 2-285 limits assumed): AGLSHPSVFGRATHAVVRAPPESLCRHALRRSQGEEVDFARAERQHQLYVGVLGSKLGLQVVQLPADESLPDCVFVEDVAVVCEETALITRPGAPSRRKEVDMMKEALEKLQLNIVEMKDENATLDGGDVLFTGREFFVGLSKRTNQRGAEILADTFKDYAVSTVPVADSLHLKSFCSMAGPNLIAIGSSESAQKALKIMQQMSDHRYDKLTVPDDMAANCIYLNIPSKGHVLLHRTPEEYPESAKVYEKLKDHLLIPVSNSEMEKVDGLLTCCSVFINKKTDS

What is called Inhibition is the relative decrease from the control value, in per cent. Read a high Inhibition as a response far below the control. Take `NC(=NCc1cccs1)NCC[C@H](N)C(=O)O` [(S)-2-Amino-4-(N′-(2-thiophenemethyl)guanidino)butanoic acid]: in series [1], the “Inhibition at 1 mM, %” value came out at 34%.
In general, inhibition refers to the drop in the measured response relative to a control, in per cent. The low end stands for a response near the control, the high end for a response far below the control. With `CC(C)N=C(N)NCC[C@H](N)C(=O)O` [Example 1, (S)-2-Amino-4-(N′-isopropylguanidino)butanoic acid], the inhibition at 1000 µM in series [1] came to 38%.
On the same count and under the same terms, the figure for `CCCN=C(N)NCC[C@H](N)C(=O)O` [Example 2, (S)-2-Amino-4-(N′-propylguanidino)butanoic acid] is 41%; for `NC(=NCc1ccccc1)NCC[C@H](N)C(=O)O` [Example 3, (S)-2-Amino-4-(N′-benzylguanidino)butanoic acid] it is 22%.
Take `NC(=NC1CCCCC1)NCC[C@H](N)C(=O)O` [Example 4, (S)-2-Amino-4-(N′-cyclohexylguanidino)butanoic acid]: the inhibition at 1000 µM in series [1] is 51%.
Take `NC(=Nc1ccccc1)NCC[C@H](N)C(=O)O` [Example 5, (S)-2-Amino-4-(N′-phenylguanidino)butanoic acid]: in series [1], the inhibition at 1000 µM amounted to 65%.
As for `COCCN=C(N)NCC[C@H](N)C(=O)O` [Example 6, (S)-2-Amino-4-(N′-(2-methoxyethyl)guanidino)butanoic acid], the inhibition at 1000 µM in series [1] stood at 90%.
The compound `CCCCCCCCN=C(N)NCC[C@H](N)C(=O)O` [Example 7, (S)-2-Amino-4-(N′-octylguanidino)butanoic acid] displayed an inhibition at 1000 µM in series [1] of 27%.
Compound `NC(=NC1CC1)NCC[C@H](N)C(=O)O` [Example 8, (S)-2-Amino-4-(N′-cyclopropylguanidino)butanoic acid] returned an inhibition at 1000 µM in series [1] of 65%.
`CN(C)CCN=C(N)NCC[C@H](N)C(=O)O` [Example 9, (S)-2-Amino-4-(N′-(2′-dimethylaminoethyl)guanidino)butanoic acid]: the “Inhibition at 1 mM, %” value in series [1] is 25%.
In the case of `CC(C)(C)CN=C(N)NCC[C@H](N)C(=O)O` [Example 10], the “Inhibition at 1 mM, %” value in series [1] came out at 19%.
Turning to `NC(=NCCOc1ccccc1)NCC[C@H](N)C(=O)O` [Example 11, (S)-2-Amino-4-(N′-(2-phenoxyethyl)guanidino)butanoic acid], the inhibition at 1000 µM in series [1] worked out at 38%.
Same read-out and setting: the figure for `CSCCN=C(N)NCC[C@H](N)C(=O)O` [Example 12, (S)-2-Amino-4-(N′-(2-methylthioethyl)guanidino)butanoic acid] is 19%.
Same read-out and setting: the figure for `CC(C)OCCN=C(N)NCC[C@H](N)C(=O)O` [Example 13, (S)-2-Amino-4-(N′-(2-isopropoxyethyl)guanidino)butanoic acid] is 97%; for `C=CCN=C(N)NCC[C@H](N)C(=O)O` [Example 14, (S)-2-Amino-4-(N′-allylguanidino)butanoic acid] it is 70%.
Same read-out and setting: the value for `N=C(NCC[C@H](N)C(=O)O)N1CCCCC1` [Example 15, (S)-2-Amino-4-[(piperidine-1-carboximidoyl)-amino]butanoic acid] was 74%; that for `N=C(NCC[C@H](N)C(=O)O)N1CCCC1` [Example 16, (S)-2-Amino-4-[(pyrrolidine-1-carboximidoyl)-amino]butanoic acid] was 79%; that for `N=C(NCC[C@H](N)C(=O)O)N1CCOCC1` [Example 17, (S)-2-Amino-4-[(morpholine-4-carboximidoyl)-amino]butanoic acid] was 60%.
`COCCN=C(N)NCC[C@H](N)C(=O)OC` [Example 22, (S)-2-Amino-4-(N′-(2-methoxyethyl)guanidino)butanoic acid methyl ester]: the entries for the “OD units drug ± sd” value in series [2] and in series [3] were 2.33 ± 0.19 OD units and 0.329 ± 0.013 OD units, respectively. In series [1], this compound showed an inhibition at 1000 µM of 75%. Also, the figures for the “% of control ± sd” value in series [4] (0.1 mM compound) and in series [4] (1 mM compound) were 87.23 ± 18.05 [2] % of control and 84.05 ± 8.09 [4] % of control, respectively.
For the compound `CCOC(=O)[C@@H](N)CCNC(N)=NCCOC` [Example 23, (S)-2-Amino-4-(N′-(2-methoxyethyl)guanidino)butanoic acid ethyl ester], the inhibition at 1000 µM in series [1] stood at 44%.
With `CCCOC(=O)[C@@H](N)CCN(CCOC)C(=N)N` [Example 24, (S)-2-Amino-4-(N-(2-methoxyethyl)guanidino)butanoic acid propyl ester], in series [1], the “Inhibition at 1 mM, %” value is reported as 64%. The “OD units drug ± sd” value in series [3] was determined as 0.351 ± 0.013 OD units. For the same compound, the “% of control ± sd” value in series [4] (0.1 mM compound) was 113.5 ± 7.93 [2] % of control; in series [4] (1 mM compound) it was 93.97 ± 12.93 [4] % of control.
Turning to `CCCCOC(=O)[C@@H](N)CCNC(N)=NCCOC` [Example 25, (S)-2-Amino-4-(N′-(2-methoxyethyl)guanidino)butanoic acid butyl ester], testing at 1000 µM in series [1] gave an inhibition of 40%.
Turning to `N=C(NCCC[C@H](N)C(=O)O)NCC1CCCO1` (stereo partly drawn) [Example 31, (S)—N^G-((Tetrahydrofuran-2-yl)methyl)-arginine], in series [1], the “Inhibition at 100 μM (%)” value was determined as 30%.
With `N=C(NCC[C@H](N)C(=O)O)NCC1CCCO1` (stereo partly drawn) [Example 32, (2S)-2-Amino-4-N^G-((tetrahydrofuran-2-yl)methyl)guanidinobutanoic acid], the “Inhibition at 100 μM (%)” value in series [1] amounted to 10%.
`COCCN=C(N)NCC[C@H](N)C(=O)OCc1ccccc1OC` [Example 33, 2-Methoxybenzyl (S)-2-amino-4-[(N′-(2-methoxyethyl))guanidino]butanoate] showed an inhibition at 100 µM in series [1] of 47.4%.
Take `COCCN=C(N)NCC[C@H](N)C(=O)OCc1ccc(OC)cc1` [Example 34, 4-Methoxybenzyl (S)-2-amino-4-[(N′-(2-methoxyethyl))guanidino]butanoate]: 100 µM produced 22.1% inhibition in series [1].
Same read-out and setting: the value for `COCCN=C(N)NCC[C@H](N)C(=O)OCc1ccccc1F` [Example 35, 2-Fluorobenzyl (S)-2-amino-4-[(N′-(2-methoxyethyl))guanidino]butanoate] was 39.8%; that for `COCCN=C(N)NCC[C@H](N)C(=O)OCc1ccc(F)c(C(F)(F)F)c1` [Example 36, 3-Trifluoromethyl-4-fluorobenzyl (S)-2-amino-4-[(N′-(2-methoxyethyl))guanidino]butanoate] was 50.6%.
On the same count and under the same terms, the figure for `COCCN=C(N)NCC[C@H](N)C(=O)OCc1cccc(Oc2ccccc2)c1` [Example 37, 3-Phenoxybenzyl (S)-2-amino-4-[(N′-(2-methoxyethyl))guanidino]butanoate] is 42.7%.
Compound `COCCN=C(N)NCC[C@H](N)C(=O)OCc1cccc(C)c1` [Example 38, 3-Methylbenzyl (S)-2-amino-4-[(N′-(2-methoxyethyl))guanidino]butanoate] registered an inhibition at 100 µM in series [1] of 48.7%.
Same read-out and setting: the value for `COCCN=C(N)NCC[C@H](N)C(=O)OCc1cccc(C(F)(F)F)c1` [Example 39, 3-Trifluoromethylbenzyl (S)-2-amino-4-[(N′-(2-methoxyethyl))guanidino]butanoate] was 45.3%; that for `COCCN=C(N)NCC[C@H](N)C(=O)OCc1cccc(F)c1` [Example 40, 3-Fluorobenzyl (S)-2-amino-4-[(N′-(2-methoxyethyl))guanidino]butanoate] was 33.2%.
On to `COCCN=C(N)NCC[C@H](N)C(=O)OCCOC` [Example 41, 2-Methoxyethyl (S)-2-amino-4-[(N′-(2-methoxyethyl))guanidino]butanoate], for which the inhibition at 100 µM in series [1] was 59%.
Regarding `CNC(=N)NCCC[C@H](N)C(=O)O` [L-NMMA, N^G monomethyl-L-arginine, reference compound], the “OD units drug ± sd” value in series [2] (setting [5]) came out at 2.22 ± 0.08 OD units; in series [3], 0.121 ± 0.003 OD units. The “% of control ± sd” value in series [4] (1 mM compound) was 16.17 ± 15.78 [4] % of control.
Turning to `CC(=N)NCCC[C@H](N)C(=O)O` [NIO, L-N-5-(1-iminoethyl)ornithine, reference compound], the results for the “OD units drug ± sd” value in series [2] (setting [5]) and in series [3] were 1.89 ± 0.41 OD units and 0.103 ± 0.002 OD units, respectively. The “% of control ± sd” value in series [4] (0.1 mM compound) was 4.14 ± 8.74 [3] % of control; in series [4] (1 mM compound), 6.25 ± 7.52 [5] % of control.
